Assay results as given in patent publication US20230116703A1, “NOVEL ERGOLINES AND METHODS OF TREATING MOOD DISORDERS” (priority 2021, published 2023).

Key:
5-HT2A receptor [1] = molecular target: T1, 5-HT2A receptor (Homo sapiens, UniProt P28223); assay: cell-based; assay type: cell-based; details: Ca^2+ flux, agonist; read-out: 5-HT2A EC50
T1 construct: host or cells: HEK293

5-HT1A receptor = molecular target: T2, 5-HT1A receptor (Homo sapiens, UniProt P08908); assay: cell-based; details: Ca^2+ flux, agonist; read-out: 5-HT1A EC50
T2 construct: host or cells: CHO cells
T2 sequence (P08908 1-422): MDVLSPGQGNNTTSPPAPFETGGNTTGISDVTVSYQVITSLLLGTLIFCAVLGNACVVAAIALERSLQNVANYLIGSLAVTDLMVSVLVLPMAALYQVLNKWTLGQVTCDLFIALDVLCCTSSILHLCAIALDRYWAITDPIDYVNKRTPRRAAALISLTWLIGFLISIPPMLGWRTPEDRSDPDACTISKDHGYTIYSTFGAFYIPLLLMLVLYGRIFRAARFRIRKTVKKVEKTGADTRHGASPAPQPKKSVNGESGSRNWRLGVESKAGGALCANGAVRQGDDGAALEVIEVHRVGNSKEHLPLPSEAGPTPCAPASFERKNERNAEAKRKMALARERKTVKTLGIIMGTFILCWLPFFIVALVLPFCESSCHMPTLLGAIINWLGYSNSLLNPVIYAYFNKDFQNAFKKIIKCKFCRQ

5-HT2B receptor = molecular target: T3, 5-HT2B receptor (Homo sapiens, UniProt P41595); assay: cell-based; details: Ca^2+ flux, agonist; read-out: 5-HT2B EC50
T3 construct: host or cells: HEK293
T3 sequence (P41595 whole entry): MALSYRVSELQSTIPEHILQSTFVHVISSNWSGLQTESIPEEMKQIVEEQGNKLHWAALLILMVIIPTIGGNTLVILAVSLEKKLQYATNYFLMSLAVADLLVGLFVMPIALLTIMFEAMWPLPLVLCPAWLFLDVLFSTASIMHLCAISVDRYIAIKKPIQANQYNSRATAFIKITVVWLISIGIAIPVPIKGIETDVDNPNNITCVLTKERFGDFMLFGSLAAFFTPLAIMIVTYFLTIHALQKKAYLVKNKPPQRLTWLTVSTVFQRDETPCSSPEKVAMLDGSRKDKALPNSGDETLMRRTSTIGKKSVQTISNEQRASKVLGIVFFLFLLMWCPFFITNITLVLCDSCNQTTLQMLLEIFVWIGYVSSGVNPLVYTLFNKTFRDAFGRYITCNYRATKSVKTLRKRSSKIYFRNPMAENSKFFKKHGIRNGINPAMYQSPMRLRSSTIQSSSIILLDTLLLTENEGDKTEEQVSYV

[2] = Metabolic stability in mouse liver microsomes (MLM); assay type: in vitro ADME; details: 0.50 mg protein per mL; for t1/2: MLM (CD-1), 1 μM
Text: MLM Stability Pooled MLM from CD-1 mice (BIOIVT M00501) were used.

Alpha1A receptor = molecular target: T4, Alpha1A receptor (Homo sapiens, UniProt P35348); assay: FLIPR Ca^2+ flux agonist assay at Alpha1A; assay type: cell-based
T4 sequence (P35348 1-466): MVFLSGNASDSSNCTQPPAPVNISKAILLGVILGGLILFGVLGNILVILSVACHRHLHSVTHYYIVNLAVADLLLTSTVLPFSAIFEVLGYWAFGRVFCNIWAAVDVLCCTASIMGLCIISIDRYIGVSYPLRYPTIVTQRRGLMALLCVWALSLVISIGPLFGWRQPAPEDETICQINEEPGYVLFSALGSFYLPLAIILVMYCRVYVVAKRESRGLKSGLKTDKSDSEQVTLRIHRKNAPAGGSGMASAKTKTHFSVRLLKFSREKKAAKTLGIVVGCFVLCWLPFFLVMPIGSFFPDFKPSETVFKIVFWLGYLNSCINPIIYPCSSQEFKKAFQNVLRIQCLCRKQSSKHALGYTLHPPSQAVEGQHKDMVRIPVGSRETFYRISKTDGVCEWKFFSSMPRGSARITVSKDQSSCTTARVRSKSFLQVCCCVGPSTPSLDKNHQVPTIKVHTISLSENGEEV
Experimental: Disclosed compounds were tested for agonist activity at several adrenergic (Alpha1A and Alpha2A) and dopamine (D1 and D2) receptor subtypes using Ca^2+ flux functional assays, with the results summarized in Table 6. Selectivity for the 5-HT2A receptor over these other targets varied depending on the specific target and compound.
Functional Assays at Adrenergic and Dopamine Receptors. Agonist activity at Alpha1A, Alpha2A, D1, and D2 receptors was determined using a FLIPR Ca^2+ flux assay at WuXi AppTec (Hong Kong) Limited according to their standard protocols. Briefly, stably transfected cells expressing the receptor of interest were grown and plated in a 384 well plate and incubated at 37° C. and 5% CO2 overnight. A solution of 250 mM probenecid in 1 mL FLIPR assay buffer was prepared fresh. This was combined with a fluorescent dye (Fluo-4 Direct™) to make a final assay concentration of 2.5 mM. Compounds were diluted 1:3.16 for 10 points and 750 nL was added to a 384 well compound plate using ECHO along with 30 μL assay buffer. The fluorescent dye was then added to the assay plate along with assay buffer to a final volume of 40 μL. The cell plate was incubated for 50 min at 37° C. and 5% CO2 and placed into the FLIPR Tetra along with the compound plate. 10 μL of references and compounds were then transferred from the compound plate into the cell plate and the fluorescent signal was read.

5-HT2A receptor [3] = molecular target: T1, 5-HT2A receptor; assay: biochemical; assay type: binding; details: 1 nM [^3H]ketanserin, HEK293 stable cell line; read-out: 5-HT2A Receptor Ki (nM) ([^3H]ketanserin)
Outline: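 Binding affinity comes from a [^3H]ketanserin radioligand assay run under literature-adapted conditions.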

5-HT1B receptor = 5-HT1B receptor (Homo sapiens, UniProt P28222); assay: cAMP accumulation agonist assay at 5-HT1B; assay type: cell-based; details: cAMP, agonist; read-out: 5-HT1B EC50
5-HT1B receptor, sequence (P28222 whole entry): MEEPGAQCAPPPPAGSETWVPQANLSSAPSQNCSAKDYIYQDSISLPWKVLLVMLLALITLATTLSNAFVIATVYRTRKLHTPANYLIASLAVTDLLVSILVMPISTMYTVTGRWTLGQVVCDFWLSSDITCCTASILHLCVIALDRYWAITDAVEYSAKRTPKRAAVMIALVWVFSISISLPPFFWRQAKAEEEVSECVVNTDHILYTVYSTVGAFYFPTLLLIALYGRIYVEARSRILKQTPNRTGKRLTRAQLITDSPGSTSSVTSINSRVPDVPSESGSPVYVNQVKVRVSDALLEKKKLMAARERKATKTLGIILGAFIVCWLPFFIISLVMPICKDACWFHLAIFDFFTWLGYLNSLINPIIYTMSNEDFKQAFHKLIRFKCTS
Outline: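 Agonism was measured by cAMP accumulation in stably transfected cells incubated 60 min at RT. A detection reagent was then added for 60 min at RT before reading, with an 800 nM cAMP standard in blank wells.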

[4] = Metabolic stability in rat liver microsomes (RLM); details: for t1/2: RLM, 0.50 mg protein per mL
[5] = Metabolic stability in human liver microsomes (HLM); assay type: in vitro ADME; details: for t1/2: 1 μM, 0.50 mg protein per mL
Text: HLM Stability. Pooled HLM from adult male and female donors (Corning 452117) were used.

5-HT2A receptor [6] = molecular target: T1, 5-HT2A receptor; assay: PathHunter beta-arrestin recruitment assay at 5-HT2A; assay type: cell-based
Experimental: The degree of arrestin bias varied substantially across the other compounds tested as well.
Arrestin Functional Assay at 5-HT2A. Recruitment of beta-arrestin was determined using a PathHunter assay at Eurofins DiscoverX (Fremont, Calif.) according to their standard protocols. PathHunter GPCR beta-arrestin assays take advantage of DiscoverX's proprietary Enzyme Fragment Complementation technology. The GPCR is fused in frame with a small enzyme donor fragment ProLink™ (PK) and co-expressed in cells stably expressing a fusion protein of beta-arrestin and the larger, N-terminal deletion mutant of beta-galactosidase. Activation of the GPCR (5-HT2A receptor in this case) stimulates binding of beta-arrestin to the PK-tagged GPCR and forces complementation of the two enzyme fragments, resulting in the formation of an active beta-galactosidase enzyme. This interaction leads to an increase in enzyme activity that can be measured using chemiluminescent PathHunter Detection Reagents. Briefly, PathHunter cells expressing 5-HT2A receptors were seeded in a volume of 20 μL into 384-well plates and incubated at 37° C. for the appropriate time prior to testing. […] Plates were then imaged on a microplate reader and the agonist activity was calculated using the following formula: % Activity=100%×(mean RLU of test sample−mean RLU of vehicle control)/(mean MAX control ligand−mean RLU of vehicle control), where RLU=relative light units.

C57BL/6 mice = assay: Head twitch response (HTR) in mice; assay type: in vivo, mouse; details: mouse HTR, SC; for ED50: 20 min, read-out: ED50 (95% CI); for ED50 / Emax (95% CI): 20 min observation, curve fit, poor in some cases
Experimental: Agonists of the 5-HT2A receptor are well known to induce this effect in rodents and the potency of this HTR is correlated with hallucinogenic potency in humans.
Animals. Adult male C57BL/6 mice, aged 6-8 weeks (body weight 20-25 g) were used in this experiment. Animals were housed under controlled temperatures and 12-hour light/dark cycles (lights on between 07:00-19:00 h), with ad libitum food and water. This study was carried out in strict accordance with the requirements of the Committee for the Purpose of Control and Supervision of Experiments on Animals (CPCSEA), India. All efforts were made to minimize suffering.
Drugs and Drug Administration. Compound 1 was synthesized as described above. It was administered subcutaneously (SC) dissolved in saline vehicle at a volume of 10 mL/kg. Five doses were tested, with n=6 animals/group. Doses were calculated on the basis of the freebase.
Procedure. Mice were administered one dose of the drug and immediately placed into a small open field for behavioral observation. Animals were observed continuously for 20 mins and the number of head twitches (HTs) were counted by an observer blind to the treatment condition.
Statistical Analysis. The data points shown are the mean±standard error of the mean (SEM). Analysis was performed using GraphPad Prism 6. Curves were fit using a non-linear gaussian distribution to calculate ED50 and Emax values.
Additional disclosed compounds were tested in the mouse head twitch response (HTR) assay according to the procedure described in Example 43. […] Lastly, compounds with much larger benzyl and phenethyl substituents on the amine nitrogen (e.g., 10 and 11) were low efficacy in this assay, consistent with their lower maximal efficacy in the arrestin functional assay (see Example 41).

human 5-HT2C receptor = molecular target: T5, human 5-HT2C receptor (Homo sapiens, UniProt P28335); assay: cell-based; details: Ca^2+ flux, agonist
T5 sequence (P28335 33-458): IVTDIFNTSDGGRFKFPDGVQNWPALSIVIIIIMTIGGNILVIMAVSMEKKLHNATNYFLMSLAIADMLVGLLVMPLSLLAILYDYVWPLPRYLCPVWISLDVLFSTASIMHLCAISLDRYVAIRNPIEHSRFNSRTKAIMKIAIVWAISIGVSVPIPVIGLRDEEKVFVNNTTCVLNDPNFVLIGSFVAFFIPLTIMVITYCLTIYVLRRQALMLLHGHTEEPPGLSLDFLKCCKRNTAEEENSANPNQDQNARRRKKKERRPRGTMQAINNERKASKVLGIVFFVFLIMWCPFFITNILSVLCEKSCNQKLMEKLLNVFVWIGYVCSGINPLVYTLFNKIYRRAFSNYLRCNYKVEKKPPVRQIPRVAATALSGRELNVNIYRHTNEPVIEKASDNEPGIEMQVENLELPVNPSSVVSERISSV

[7] = mouse, pooled mouse liver microsomes, pH 7.4, MLM (CD-1)
[8] = both, rat, pooled rat liver microsomes, pH 7.4
[9] = both sexes, human, pooled human liver microsomes, pH 7.4, 0.50 mg protein per mL

T1 sequence (P28223 whole entry): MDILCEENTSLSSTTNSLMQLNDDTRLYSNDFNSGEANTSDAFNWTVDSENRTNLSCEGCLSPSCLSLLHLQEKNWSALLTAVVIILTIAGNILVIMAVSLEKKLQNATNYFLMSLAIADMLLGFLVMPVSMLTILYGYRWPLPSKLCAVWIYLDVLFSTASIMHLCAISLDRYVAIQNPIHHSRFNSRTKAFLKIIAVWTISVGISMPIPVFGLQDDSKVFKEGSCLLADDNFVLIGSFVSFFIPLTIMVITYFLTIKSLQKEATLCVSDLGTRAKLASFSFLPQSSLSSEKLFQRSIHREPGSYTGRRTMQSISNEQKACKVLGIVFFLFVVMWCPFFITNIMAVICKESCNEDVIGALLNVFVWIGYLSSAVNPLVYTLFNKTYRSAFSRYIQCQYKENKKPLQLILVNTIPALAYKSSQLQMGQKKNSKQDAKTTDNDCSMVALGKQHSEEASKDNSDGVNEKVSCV

| SMILES | EC50 (5-HT2A receptor [1]) [nM] | EC50 (5-HT1A receptor) [nM] | EC50 (5-HT2B receptor) [nM] | t1/2 [2] [min] | microsomal CLint at 1 μM [2, 7] [µL/min/mg] | EC50 (Alpha1A receptor) [nM] | Ki (5-HT2A receptor [3]) [nM] | EC50 (5-HT1B receptor) [nM] | t1/2 [4] [min] | microsomal CLint at 1 μM [4, 8] [µL/min/mg] | t1/2 [5] [min] | microsomal CLint at 1 μM [5, 9] [µL/min/mg] | EC50 (5-HT2A receptor [6]) [nM] | agonist type in arrestin recruitment assay (in words) (5-HT2A receptor [6]; 5-HT2A beta-arrestin) | ED50 (C57BL/6 mice) [mg/kg] | Most Efficacious Dose (C57BL/6 mice) [mg/kg] | Emax (95% CI) (C57BL/6 mice) | EC50 (human 5-HT2C receptor) [nM] | other results |
| --- | --- | --- | --- | --- | --- | --- | --- | --- | --- | --- | --- | --- | --- | --- | --- | --- | --- | --- | --- |
| CCN(CC)C(=O)[C@@H]1C=C2c3cccc4[nH]cc(c34)C[C@H]2N(CC2CC2)C1 [Compound 13, (6aR,9R)—N,N-diethyl-7-(cyclopropylmethyl)-4,6,6a,7,8,9-hexahydroindolo[4,3-fg]quinoline-9-carboxamide] | 25.9 | 15.3 | 182 | 3.7 | 376 | 44.6 | 2.23 | 98.6 | 27.7 | 50 | 21.1 | 65.7 | – | – | – | – | – | – | – |
| CC[C@@H](C)NC(=O)[C@@H]1C=C2c3cccc4[nH]cc(c34)C[C@H]2N(C)C1 [Int8, (6aR,9R)—N—((R)-sec-butyl)-7-methyl-4,6,6a,7,8,9-hexahydroindolo[4,3-fg]quinoline-9-carboxamide] | 10.3 | 9.69 | 71.9 | 39.9 | 34.7 | – | 1.07 | – | 99.5 | 13.9 | 64.9 | 21.3 | 4.05 | partial agonists | 0.106 | 1 | 14.34 (10.41-31.47) | 7.32 | Emax (5-HT2A receptor [6]; 5-HT2A beta-arrestin): < 60% |
| CC[C@@H](C)NC(=O)[C@@H]1C=C2c3cccc4[nH]cc(c34)C[C@H]2N(CC)C1 [Compound 5, (6aR,9R)—N—((R)-sec-butyl)-7-ethyl-4,6,6a,7,8,9-hexahydroindolo[4,3-fg]quinoline-9-carboxamide] | 0.718 | 0.96 | 35.4 | – | 170 | – | 2.18 | – | – | 72 | – | 62.3 | 1.92 | full agonists | 0.0306 | 0.32 | 15.22 (11.77-19.03) | 1.29 | half-life at 1 μM [2, 7]: 8.1 min; half-life at 1 μM [4, 8]: 19.3 min; half-life at 1 μM [5, 9]: 22.2 min |
| CCN(CC)C(=O)[C@@H]1C=C2c3cccc4[nH]cc(c34)C[C@H]2N(CCC(F)(F)F)C1 [Compound 12, (6aR,9R)—N,N-diethyl-7-(3,3,3-trifluoropropyl)-4,6,6a,7,8,9-hexahydroindolo[4,3-fg]quinoline-9-carboxamide] | 52.9 | 2140 | 154 | 2.1 | 655 | > 3160 | 5.61 | 194 | 5.9 | 236 | 13.5 | 103 | – | – | – | – | – | – | – |
